Data taken from patent US12636316B2, “Pharmaceutical composition for preventing or treating myositis, comprising isolated mitochondria as active ingredient” (PAEAN BIOTECHNOLOGY INC., priority 2019, dated 2026).

Assay: Membrane potential of mitochondria (JC-1 dye)
Assay type: biochemical
Conditions: 5 μg mitochondria mixed in 50 μL CCCP, room temperature 10 minutes, JC-1 2 μM
Method: In order to measure the membrane potential of the mitochondria isolated in Preparation Example 1, the mitochondrial protein concentration of the isolated mitochondria was quantified through the BCA to prepare 5 μg of mitochondria. The membrane potential of the mitochondria was measured using a JC-1 (molecular probes, cat no.1743159) dye.
Specifically, as an experimental group, 5 μg of the prepared mitochondria was mixed in 50 μL of PBS and then dispensed in a 96-well plate. In addition, as a control group, 50 μL of PBS without mitochondria was dispensed in a 96-well plate. In addition, as an additional experimental group, 5 μg of mitochondria was mixed in 50 μL of CCCP (R&D systems, CAS 555-60-2), then reacted at room temperature for 10 minutes, and then dispensed in a 96-well plate. In this case, CCCP is an ion transporter of mitochondria and depolarizes the membrane potential of mitochondria, thereby inhibiting the function of mitochondria.
Thereafter, each well was treated and reacted with the JC-1 dye so that the concentration was 2 μM, and then the absorbance was measured using a fluorescence microplate reader. […] The membrane potential of mitochondria was analyzed by calculating the ratio of […].

N#CC(C#N)=NNc1cccc(Cl)c1 [CCCP]
membrane potential activity: low membrane potential activity
